The supplement of paper PMC10307832

What was measured:
Test in all cases: relative viability (nuclei count vs DMSO), 5 days (fraction); higher = more cells survive
GSK-J4 + Tozasertib = compound: CCOC(=O)CCNc1cc(N2CCc3ccccc3CC2)nc(-c2ccccn2)n1 [GSK-J4] + Cc1cc(Nc2cc(N3CCN(C)CC3)nc(Sc3ccc(NC(=O)C4CC4)cc3)n2)n[nH]1 [Tozasertib] (partner 0.1 µM)
Outline: (§1)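 Lung cancer cell lines in 1536-well plates were dosed by pin tool the day after seeding, either with one drug alone or with a fixed anchor-drug dose plus five library-drug doses (not always all listed) in √10 steps. After 5 days, cells were fixed and their nuclei stained in one step (final 0.05% Triton X-100, 1% formaldehyde, 1 ug/ml Hoechst), then counted on 4× images. Relative viability is the nuclei count in treated wells divided by that in vehicle wells. Values are medians of duplicate plates.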

AZ3146 + Bortezomib = compound: CN1CCC(CC1)OC2=CC(=C(C=C2)NC3=NC=C4C(=N3)N(C(=O)N4C)C5CCCC5)OC [AZ3146] + CC(C)C[C@H](NC(=O)[C@H](Cc1ccccc1)NC(=O)c1cnccn1)B(O)O [Bortezomib] (partner 0.002 µM)
Outline: as §1

AZ3146 + Linsitinib = compound: CN1CCC(CC1)OC2=CC(=C(C=C2)NC3=NC=C4C(=N3)N(C(=O)N4C)C5CCCC5)OC [AZ3146] + C[C@]1(O)C[C@@H](c2nc(-c3ccc4ccc(-c5ccccc5)nc4c3)c3c(N)nccn32)C1 [Linsitinib] (partner 1 µM)
Outline: as §1

AZ3146 + Foretinib = compound: CN1CCC(CC1)OC2=CC(=C(C=C2)NC3=NC=C4C(=N3)N(C(=O)N4C)C5CCCC5)OC [AZ3146] + COc1cc2c(Oc3ccc(NC(=O)C4(C(=O)Nc5ccc(F)cc5)CC4)cc3F)ccnc2cc1OCCCN1CCOCC1 [Foretinib] (partner 0.25 µM)
Outline: as §1

Cell Line | relative viability (GSK-J4 + Tozasertib; first compound 0.5 µM) | relative viability (GSK-J4 + Tozasertib; first compound 1.581 µM) | relative viability (GSK-J4 + Tozasertib; first compound 5 µM) | relative viability (GSK-J4 + Tozasertib; first compound 15.81 µM) | relative viability (GSK-J4 + Tozasertib; first compound 50 µM) | relative viability (AZ3146 + Bortezomib; first compound 0.253 µM) | relative viability (AZ3146 + Bortezomib; first compound 0.8 µM) | relative viability (AZ3146 + Bortezomib; first compound 2.53 µM) | relative viability (AZ3146 + Bortezomib; first compound 8 µM) | relative viability (AZ3146 + Linsitinib; first compound 0.253 µM) | relative viability (AZ3146 + Linsitinib; first compound 0.8 µM) | relative viability (AZ3146 + Linsitinib; first compound 2.53 µM) | relative viability (AZ3146 + Linsitinib; first compound 8 µM) | relative viability (AZ3146 + Foretinib; first compound 0.08 µM) | relative viability (AZ3146 + Foretinib; first compound 0.253 µM) | relative viability (AZ3146 + Foretinib; first compound 0.8 µM) | relative viability (AZ3146 + Foretinib; first compound 2.53 µM) | relative viability (AZ3146 + Foretinib; first compound 8 µM) | relative viability (AZ3146 + Bortezomib; first compound 0.08 µM) | relative viability (AZ3146 + Linsitinib; first compound 0.08 µM)
HCC-78 | 0.426 | 0.401 | 0.494 | 0.379 | 0.348 | 0.471 | 0.271 | 0.558 | 0.447 | 0.476 | 0.416 | 0.532 | 0.522 | 0.51 | 0.547 | 0.534 | 0.601 | 0.58 |  | 
HCC-366 | 0.138 | 0.0869 |  | 0.083 | 0.0821 | 1.05 | 1.08 | 1.06 | 0.735 | 0.598 | 0.593 | 0.637 | 0.855 | 0.791 | 0.924 | 0.908 | 0.974 | 0.178 | 0.983 | 0.674
HCC-827 | 0.408 | 0.434 | 0.44 | 0.4 | 0.362 | 1.07 | 1.11 | 1.09 | 1.09 | 0.889 | 0.946 | 1.02 | 1.01 | 1.08 | 1 | 1.03 | 1.03 | 1.09 | 0.933 | 0.907
HOP-62 | 0.344 | 0.335 | 0.358 | 0.339 | 0.24 | 0.967 | 0.694 | 0.851 | 0.44 | 0.978 | 1.06 | 1.06 | 1.05 | 1.06 | 1.16 | 1.01 | 1.11 | 1.08 | 0.401 | 1.05
IA-LM |  |  |  |  |  | 0.775 | 0.759 | 0.695 | 0.264 | 0.441 | 0.652 | 0.803 | 0.626 | 1.21 | 1.36 | 1.33 | 1.08 | 0.285 | 0.643 | 0.729
LC-2-ad | 0.429 | 0.377 | 0.41 | 0.399 | 0.36 | 1.05 | 1.03 | 0.996 | 0.668 | 0.886 | 0.775 | 0.845 | 0.863 | 0.735 | 0.905 | 1.06 | 0.935 | 0.878 | 0.857 | 0.782
LK-2 | 0.165 |  | 0.167 | 0.164 | 0.147 |  |  |  |  | 0.645 | 0.562 | 0.519 | 0.729 | 0.934 | 1.21 | 1.7 | 1.46 | 1.3 |  | 0.672
NCI-H358 | 0.087 | 0.0898 | 0.0969 | 0.113 | 0.129 |  |  |  |  | 0.744 | 0.65 | 0.75 | 0.461 | 0.608 | 0.637 | 0.554 | 0.504 | 0.212 |  | 0.868
NCI-H522 | 0.541 | 0.608 | 0.502 | 0.515 | 0.485 |  |  |  |  |  |  |  |  |  |  |  |  |  |  | 
NCI-H1299 |  |  |  |  |  | 0.965 | 1.05 | 1.01 | 1.01 | 0.981 | 0.964 | 0.99 | 1.03 | 1.06 | 1.1 | 1.07 | 1.12 | 0.679 | 0.965 | 0.941
NCI-H1395 | 0.806 | 0.864 | 0.728 | 0.687 | 0.614 |  |  |  |  | 1.1 | 1.28 | 1.37 | 1.05 | 0.989 | 0.962 | 0.949 | 1.07 | 1.02 |  | 0.986
NCI-H1563 |  |  |  |  |  | 0.82 | 0.826 | 1.01 | 0.77 | 1.36 | 1.15 | 1.24 | 1.35 | 0.901 | 1.07 | 0.903 | 0.901 | 0.864 | 0.703 | 1.09
NCI-H1648 | 0.44 |  | 0.978 | 0.324 | 0.307 |  |  |  |  |  |  |  |  |  |  |  |  |  |  | 
NCI-H1650 | 0.369 | 0.393 | 0.333 | 0.311 | 0.301 | 0.226 | 0.205 | 0.168 | 0.2 |  |  |  |  | 1.29 | 1.49 | 0.879 | 1 | 0.604 | 0.204 | 
NCI-H1703 |  |  |  |  |  | 0.485 | 0.292 | 0.275 | 0.275 | 1.15 | 0.637 | 0.872 | 0.924 | 0.285 | 0.351 | 0.329 | 0.343 | 0.272 | 0.213 | 0.824
NCI-H1792 |  |  |  |  |  | 1.04 | 1.05 | 0.976 | 1 | 0.551 | 0.523 | 0.6 | 0.65 |  |  |  |  |  | 0.784 | 0.436
NCI-H1793 | 0.331 | 0.315 | 0.305 | 0.266 | 0.286 |  |  |  |  | 0.921 | 0.638 | 0.813 | 1.02 | 0.672 | 0.699 | 0.755 | 0.686 | 0.316 |  | 0.841
NCI-H1944 | 0.257 | 0.238 | 0.248 | 0.243 | 0.255 |  |  |  |  | 1.11 | 1.14 | 1.21 | 1.35 | 0.664 | 0.88 | 0.985 | 0.943 | 0.99 |  | 
NCI-H2170 | 0.599 | 0.544 | 0.692 | 0.759 | 0.512 |  |  |  |  |  |  |  |  | 1.09 | 0.974 | 0.983 | 1.04 | 1.03 |  | 
NCI-H2342 | 0.427 | 0.664 | 0.482 | 0.557 | 0.529 |  |  |  |  |  |  |  |  | 0.928 | 1.03 | 1.16 | 1.01 | 1.07 |  | 
SK-MES-1 | 0.821 | 0.854 | 0.736 | 0.856 | 0.524 |  |  |  |  | 1.06 | 1.01 | 1.09 | 1.12 | 0.979 | 0.832 | 0.974 | 1 | 0.957 |  | 1.06
SW 900 | 0.478 | 0.463 | 0.696 | 0.408 | 0.333 |  |  |  |  |  |  |  |  | 0.899 | 0.761 | 0.811 | 0.893 | 0.759 |  | 
